Laboratory results reported in patent US10730826B2, “Ketone inhibitors of lysine gingipain” (CORTEXYME, INC., priority 2016, dated 2020).
“And” between values parts separate entries of the source, which are not always exact repeats. Equal entries are not always repeated. Where two headings read alike, the source gives them in different places.

Tests used:
Cathepsin B = Cathepsin B (Homo sapiens (Human), UniProt P07858); experiment: Cathepsin B inhibition assay; format: biochemical; settings: for IC50: read-out: IC50 (nM) CatB
Protocol: (§1) The capacities of compounds of the present invention to inhibit the activity of cathepsins B, H, K, L, and S were measured in similar assays. Boc-Leu-Arg-Arg-AMC (20 μM) in sodium acetate buffer (50 mM, pH 5.5) containing DTT (1 mM) and EDTA (2 mM) was used for the Cathepsin B assay. L-Arg-AMC (20 μM) in sodium acetate buffer (50 mM, pH 5.5) containing DTT (1 mM) and EDTA (2 mM) was used for the Cathepsin H assay. Z-Phe-Arg-AMC (10 μM) in HEPES buffer (50 mM, pH 7.4) containing DTT (2.5 mM) and EDTA (1 mM) was used for the Cathepsin K assay. Z-Phe-Arg-AMC (20 μM) in sodium acetate buffer (50 mM, pH 5.5) containing DTT (1 mM) and EDTA (2 mM) was used for the Cathepsin L assay. Z-Leu-Arg-AMC (10 μM) in sodium acetate buffer (25 mM, pH 4.5) containing DTT (2.5 mM) and NaCl (50 mM) was used for the Cathepsin S assay. The capacities of the compounds to inhibit the activity of cathepsins F, V, and Z were also measured.
(§2) Further assays to measure the inhibitory activity of compounds of the present invention against Kgp and cathepsins B, H, K, L, and S were conducted as described in Example 66. The capacities of the compounds to inhibit the activity of cathepsins F, V, and Z were also measured.

Cathepsin L = Cathepsin L (Homo sapiens (Human), UniProt P07711); experiment: Cathepsin L inhibition assay; format: biochemical; settings: for IC50: read-out: IC50 (nM) CatL
Protocol: as §1, §2

Cathepsin H = Cathepsin H (Homo sapiens (Human), UniProt P09668); experiment: Cathepsin H inhibition assay; format: biochemical; settings: for IC50: read-out: IC50 (nM) CatH
Protocol: as §1, §2

Cathepsin S = Cathepsin S (Homo sapiens (Human), UniProt P25774); experiment: Cathepsin S inhibition assay; format: biochemical; settings: for IC50: read-out: IC50 (nM) CatS
Protocol: as §1, §2

Cathepsin K = Cathepsin K (Homo sapiens (Human), UniProt P43235); experiment: Cathepsin K inhibition assay; format: biochemical; settings: for IC50: read-out: IC50 (nM) CatK
Protocol: as §1, §2

lysine gingipain (Kgp) [1] = experiment: biochemical; format: biochemical, Porphyromonas gingivalis; settings: as compared to reference compound 73
Protocol: (§3) The specific assay conditions were as follows. Buffer: pH=7.5, 100 mM Tris-HCl, 75 mM NaCl, 2.5 mM CaCl2), 10 mM cysteine, 1% DMSO after all additions. Protein: 0.1 nM Kgp, isolated from culture of Porphyromonas gingivalis, as described by Pike et al. (J. Biol. Chem. 1994, 269(1), 406), and Potempa and Nguyen (Current Protocols in Protein Science. 2007, 21.20.1-21.20.27). Fluorogenic substrate: 10 μM Z-His-Glu-Lys-MCA. Time=90 minutes. Temperature=37° C.
as §2

cathepsin V = cathepsin V (Homo sapiens (Human), UniProt O60911); experiment: Cathepsin V inhibition assay; format: biochemical; settings: Table 4; read-out: IC50 (nM) CatV
Protocol: as §1, §2

lysine gingipain (Kgp) [2] = target: lysine gingipain (Kgp) (Porphyromonas gingivalis (Bacteroides gingivalis), UniProt P72194); experiment: biochemical; format: biochemical; settings: IC50 (nM) Kgp
Protocol: as §3, §2

**Q.** What does the source list for `NCCCC[C@H](NC(=O)C1CCCC1)C(=O)COc1c(F)ccc(F)c1F` (racemic) [1a - non-racemic]?
**A.** IC50 (Cathepsin B; Table 3): 380 nM; IC50 (Cathepsin L; Table 3): 4680 nM; IC50 (Cathepsin H; Table 3): 560 nM; IC50 (Cathepsin S; Table 3): 29500 nM; IC50 (Cathepsin K; Table 3): 170 nM

**Q.** Which results are given for `NCCCC[C@H](NC(=O)C1CCCC1)C(=O)COc1c(F)cccc1F` [Compound 2, (S)—N-(7-amino-1-(2,6-difluorophenoxy)-2-oxoheptan-3-yl)cyclopentanecarboxamide]?
**A.** CatB IC50 relative to reference compound 73 (Cathepsin B; ratio to IC50 of compound 73): more than 20 times; CatL IC50 relative to reference compound 73 (Cathepsin L; ratio to IC50 of compound 73): more than 100 times; CatH IC50 relative to reference compound 73 (Cathepsin H; ratio to IC50 of compound 73): more than ten times higher; CatS IC50 relative to reference compound 73 (Cathepsin S; ratio to IC50 of compound 73): more than ten times higher; selectivity for Kgp over endogenous cathepsins (lysine gingipain (Kgp) [1]): increased selectivity; CatK IC50 relative to reference compound 73 (Cathepsin K; ratio to IC50 of compound 73): more than 100 times

**Q.** With `NCCCCC(NC(=O)C1CCCC1)C(=O)COc1c(F)cccc1F` (stereo not drawn) [Compound 2a] as the compound, how does the IC50 (Cathepsin B; Table 3) read?
**A.** > 10000 nM

**Q.** What about the IC50 (Cathepsin B; Table 4) of the same compound?
**A.** > 10000 nM

**Q.** What about the IC50 (Cathepsin L; Table 3) of the same compound?
**A.** > 100000 nM

**Q.** What about the IC50 (Cathepsin L; Table 4) of the same compound?
**A.** > 10000 nM

**Q.** What about the IC50 (Cathepsin H; Table 3) of the same compound?
**A.** 1550 nM

**Q.** What about the IC50 (Cathepsin H; Table 4) of the same compound?
**A.** 1550 nM

**Q.** And the IC50 (cathepsin V)?
**A.** > 10000 nM

**Q.** And the IC50 (Cathepsin S; Table 3)?
**A.** > 100000 nM

**Q.** What about the IC50 (Cathepsin S; Table 4) of the same compound?
**A.** > 10000 nM

**Q.** And the IC50 (lysine gingipain (Kgp) [2]; Table 3)?
**A.** ≤ 0.05 nM and 0.11 nM

**Q.** What about the IC50 (lysine gingipain (Kgp) [2]; Table 4) of the same compound?
**A.** < 0.05 nM

**Q.** What about the IC50 (Cathepsin K; Table 3) of the same compound?
**A.** 2290 nM

**Q.** And the IC50 (Cathepsin K; Table 4)?
**A.** 2290 nM

**Q.** How did the IC50 (Cathepsin B; Table 3) turn out when `NCCCCC(NC(=O)C1CCCC1)C(=O)COc1ccccc1F` (stereo not drawn) [Compound 3a] was run?
**A.** 52200 nM

**Q.** What about the IC50 (Cathepsin L; Table 3) of the same compound?
**A.** > 100000 nM

**Q.** And the IC50 (Cathepsin S; Table 3)?
**A.** > 100000 nM

**Q.** What about the IC50 (lysine gingipain (Kgp) [2]; Table 3) of the same compound?
**A.** 0.64 nM

**Q.** And the IC50 (Cathepsin K; Table 3)?
**A.** > 100000 nM

**Q.** `NCCCCC(NC(=O)C1CCCC1)C(=O)COc1cc(F)cc(F)c1F` (stereo not drawn) [Compound 4a] was tested. Which IC50 (Cathepsin B; Table 3) did it give?
**A.** 2640 nM

**Q.** And the IC50 (Cathepsin L; Table 3)?
**A.** > 100000 nM

**Q.** And the IC50 (Cathepsin S; Table 3)?
**A.** > 100000 nM

**Q.** What about the IC50 (lysine gingipain (Kgp) [2]; Table 3) of the same compound?
**A.** 0.07 nM

**Q.** What about the IC50 (Cathepsin K; Table 3) of the same compound?
**A.** > 100000 nM

**Q.** How did the IC50 (Cathepsin B; Table 3) turn out when `NCCCCC(NC(=O)C1CCCC1)C(=O)COc1cccc(F)c1F` (stereo not drawn) [Compound 5a] was run?
**A.** 21500 nM

**Q.** And the IC50 (Cathepsin L; Table 3)?
**A.** > 100000 nM

**Q.** What about the IC50 (Cathepsin S; Table 3) of the same compound?
**A.** > 100000 nM

**Q.** What about the IC50 (lysine gingipain (Kgp) [2]; Table 3) of the same compound?
**A.** 0.15 nM

**Q.** And the IC50 (Cathepsin K; Table 3)?
**A.** > 100000 nM

**Q.** With `NCCCCC(NC(=O)C1CCCC1)C(=O)COc1cc(F)ccc1F` (stereo not drawn) [Compound 6a] as the compound, how does the IC50 (Cathepsin B; Table 3) read?
**A.** 20300 nM

**Q.** And the IC50 (Cathepsin L; Table 3)?
**A.** > 100000 nM

**Q.** What about the IC50 (Cathepsin S; Table 3) of the same compound?
**A.** 42800 nM

**Q.** And the IC50 (lysine gingipain (Kgp) [2]; Table 3)?
**A.** 0.19 nM

**Q.** What about the IC50 (Cathepsin K; Table 3) of the same compound?
**A.** > 100000 nM

**Q.** For `NCCCC[C@H](NC(=O)C1CCCC1)C(=O)COc1cccc(F)c1` [Compound 7, (S)—N-(7-amino-1-(3-fluorophenoxy)-2-oxoheptan-3-yl)cyclopentanecarboxamide], which “selectivity for Kgp over endogenous cathepsins” value (lysine gingipain (Kgp) [1]) is on record?
**A.** increased selectivity

**Q.** `NCCCCC(NC(=O)C1CCCC1)C(=O)COc1cccc(F)c1` (stereo not drawn) [Compound 7a] was tested. Which IC50 (Cathepsin B; Table 3) did it give?
**A.** 49600 nM

**Q.** What about the IC50 (Cathepsin B; Table 4) of the same compound?
**A.** > 10000 nM

**Q.** What about the IC50 (Cathepsin L; Table 3) of the same compound?
**A.** 5530 nM

**Q.** And the IC50 (Cathepsin L; Table 4)?
**A.** > 10000 nM

**Q.** And the IC50 (Cathepsin S; Table 3)?
**A.** 24100 nM

**Q.** And the IC50 (Cathepsin S; Table 4)?
**A.** > 10000 nM

**Q.** And the IC50 (lysine gingipain (Kgp) [2]; Table 3)?
**A.** 1.3 nM

**Q.** And the IC50 (lysine gingipain (Kgp) [2]; Table 4)?
**A.** 1.3 nM

**Q.** What about the IC50 (Cathepsin K; Table 3) of the same compound?
**A.** 20200 nM

**Q.** What about the IC50 (Cathepsin K; Table 4) of the same compound?
**A.** > 10000 nM

**Q.** For `NCCCCC(NC(=O)C1CCCC1)C(=O)COc1cc(F)cc(F)c1` (stereo not drawn) [Compound 8a], which IC50 (Cathepsin B; Table 3) is on record?
**A.** 68300 nM

**Q.** And the IC50 (Cathepsin L; Table 3)?
**A.** > 100000 nM

**Q.** And the IC50 (Cathepsin S; Table 3)?
**A.** > 100000 nM

**Q.** What about the IC50 (lysine gingipain (Kgp) [2]; Table 3) of the same compound?
**A.** 0.34 nM

**Q.** And the IC50 (Cathepsin K; Table 3)?
**A.** > 100000 nM
